In patent US20210186020A1, “AGRICULTURAL COMPOSITIONS AND METHODS OF USE THEREOF” (Valent U.S.A. LLC, priority 2019, published 2021):

Key:
barnyard grass = assay: Spray-chamber efficacy of S-3100 with or without fertilizer on potted barnyard grass; assay type: in vivo, Echinochloa crus-galli; details: barnyard grass 10 inches, S-3100 20 grams/ha, Fertilizer 14 liters/ha, 1% v/v Agridex (combination also 1% v/v Intact)
Experimental: 4 trials were conducted on the efficacy of ethyl [3-[2-chloro-4-fluoro-5-(1-methyl-6-trifluoromethyl-2,4-dioxo-1,2,3,4-tetrahydropyrimidin-3-yl)phenoxy]-2-pyridyloxy]acetate (“S-3100”) with or without a mannitol and/or sorbitol comprising fertilizer. Specifically, 4 pots of barnyard grass were grown to 10 inches in height. These pots were placed in a spray chamber for treatment. All compositions contained 1% v/v of Agridex®. The composition containing S-3100 and fertilizer contained 1% v/v of Intact™. Treatments and results can be found in Table 1, below.

broadleaf grass = assay: Spray-chamber efficacy of S-3100 with or without fertilizer on potted broadleaf grass; assay type: in vivo; details: broadleaf grass 10 inches, S-3100 20 grams/ha, Fertilizer 14 liters/ha, 1% v/v Agridex (combination also 1% v/v Intact)
Experimental: 4 trials were conducted on the efficacy of ethyl [3-[2-chloro-4-fluoro-5-(1-methyl-6-trifluoromethyl-2,4-dioxo-1,2,3,4-tetrahydropyrimidin-3-yl)phenoxy]-2-pyridyloxy]acetate (“S-3100”) with or without a mannitol and/or sorbitol comprising fertilizer. Specifically, 4 pots of broadleaf grass were grown to 10 inches in height. These pots were placed in a spray chamber for treatment. All compositions contained 1% v/v of Agridex®. The composition containing S-3100 and fertilizer contained 1% v/v of Intact™. Treatments and results can be found in Table 2, below.

giant foxtail = assay: Spray-chamber efficacy of S-3100 with or without fertilizer on potted giant foxtail; assay type: in vivo, Setaria faberi; details: giant foxtail 10 inches, S-3100 20 grams/ha, Fertilizer 14 liters/ha, 1% v/v Agridex (combination also 1% v/v Intact)
Experimental: 4 trials were conducted on the efficacy of ethyl [3-[2-chloro-4-fluoro-5-(1-methyl-6-trifluoromethyl-2,4-dioxo-1,2,3,4-tetrahydropyrimidin-3-yl)phenoxy]-2-pyridyloxy]acetate (“S-3100”) with or without a mannitol and/or sorbitol comprising fertilizer. Specifically, 4 pots of giant foxtail were grown to 10 inches in height. These pots were placed in a spray chamber for treatment. All compositions contained 1% v/v of Agridex®. The composition containing S-3100 and fertilizer contained 1% v/v of Intact™. Treatments and results can be found in Table 3, below.

volunteer corn = assay: Spray-chamber efficacy of S-3100 with or without fertilizer on potted volunteer corn; assay type: in vivo, Zea mays; details: volunteer corn 15 inches, S-3100 20 grams/ha, Fertilizer 14 liters/ha, 1% v/v Agridex (combination also 1% v/v Intact)
Experimental: 4 trials were conducted on the efficacy of ethyl [3-[2-chloro-4-fluoro-5-(1-methyl-6-trifluoromethyl-2,4-dioxo-1,2,3,4-tetrahydropyrimidin-3-yl)phenoxy]-2-pyridyloxy]acetate (“S-3100”) with or without a mannitol and/or sorbitol comprising fertilizer. Specifically, 4 pots of volunteer corn were grown to 15 inches in height. These pots were placed in a spray chamber for treatment. All compositions contained 1% v/v of Agridex®. The composition containing S-3100 and fertilizer contained 1% v/v of Intact™. Treatments and results can be found in Table 4, below.

CCOC(=O)COc1ncccc1Oc1cc(-n2c(=O)cc(C(F)(F)F)n(C)c2=O)c(F)cc1Cl [S-3100, ethyl [3-[2-chloro-4-fluoro-5-(1-methyl-6-trifluoromethyl-2,4-dioxo-1,2,3,4-tetrahydropyrimidin-3-yl)phenoxy]-2-pyridyloxy]acetate]
% control, 3 Days After Treatment (barnyard grass; 3 DAT): 73.3%
% control, 7 Days After Treatment (barnyard grass; 7 DAT): 85.2%
% control, 13 Days After Treatment (barnyard grass; 13 DAT): 84.7%
% control, 3 Days After Treatment (broadleaf grass; 3 DAT): 75.0%
% control, 7 Days After Treatment (broadleaf grass; 7 DAT): 93.0%
% control, 14 Days After Treatment (broadleaf grass; 14 DAT): 84.2%
% control, 3 Days After Treatment (giant foxtail; 3 DAT): 76.7%
% control, 7 Days After Treatment (giant foxtail; 7 DAT): 95.5%
% control, 14 Days After Treatment (giant foxtail; 14 DAT): 96.1%
% control, 3 Days After Treatment (volunteer corn; 3 DAT): 65.0%
% control, 7 Days After Treatment (volunteer corn; 7 DAT): 59.2%
% control, 14 Days After Treatment (volunteer corn; 14 DAT): 56.7%
